Source: patent US20150328232A1, “PROSTACYLIN COMPOSITIONS AND METHODS FOR USING THE SAME” (INSMED INCORPRATION, priority 2012, published 2015)

What was measured:
[1] = cited from earlier work
[2] = Dialysis assay against PBS (treprostinil release); type: physicochemical; details: 5 mL dialyzed against 1 L 1×PBS, 50 kDa MW cutoff membrane
Description: The results of this study can be used as an indication of which compositions might provide a sustained release profile in vivo.
5 mL of each sample was dialyzed against 1 L of 1×PBS. […] sample was collected and tested by HPLC at different time points (FIG. 7). 250 μL sample was collected at 24 h. Each time a sample was collected, an equal volume of 1×PBS was added to the dialysis bag. Absorbance data was normalized to the calculated dilution factor.

[3] = target: T1, EP2 prostanoid receptor (Homo sapiens, UniProt P43116); experiment: GloSensor cAMP assay in CHO-K1 cells co-transfected with EP2 receptor; type: cell-based
T1 construct: host or cells: CHO-K1
Source text: A cell based Chinese hamster ovary-K1 (CHO-K1) assay based on the GloSensor™ cAMP assay (Promega) was used to characterize the effect of treprostinil alkyl ester compounds on cAMP levels.
cAMP is a second messenger involved in signal transduction of G-protein coupled receptors (GPCRs) acting through Gα-s and Gα-i proteins. Because the treprostinil receptor is a GPCR, the assay provides an indication of whether the respective prostacyclin composition binds its receptor and activates the GPCR cell signaling cascade.
The GloSensor™ assay harnesses a genetically modified form of firefly luciferase into which a cAMP-binding protein moiety has been inserted. Upon binding of cAMP, a conformational change is induced leading to increased light output.
The EP2 prostanoid receptor was co-transfected with the GloSensor™ plasmid (Promega) into CHO-K1 cells as follows. CHO-K1 cells were harvested when the monoloayer was at 50-90% confluence. First, cells were washed with 5 mL PBS. […] Cell number was determined using a hemacytometer. […]
Following incubation, cells were treated and analyzed. […] Cell number was determined using a hemacytometer. […] Following an overnight incubation at 37° C. and 5% CO2 in a water-jacketed incubator, the cells were ready for use in cAMP response assays. […]

T1 sequence (P43116 whole entry): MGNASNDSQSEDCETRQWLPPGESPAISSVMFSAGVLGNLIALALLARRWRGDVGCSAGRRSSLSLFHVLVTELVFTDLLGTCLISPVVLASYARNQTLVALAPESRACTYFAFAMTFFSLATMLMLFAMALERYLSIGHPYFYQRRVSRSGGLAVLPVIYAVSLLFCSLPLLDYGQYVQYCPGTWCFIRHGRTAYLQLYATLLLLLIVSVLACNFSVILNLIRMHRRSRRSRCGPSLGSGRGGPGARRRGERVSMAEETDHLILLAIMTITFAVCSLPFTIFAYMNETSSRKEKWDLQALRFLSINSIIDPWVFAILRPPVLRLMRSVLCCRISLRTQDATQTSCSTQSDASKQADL

rate of treprostinil release during dialysis [2]	sustained cAMP level [3]	Structure (SMILES)	time to steady state plasma concentrations ([1]; continuous subcutaneous infusion, 1.25 to 22 ng/kg/min)	excreted in urine as identifiable metabolite ([1]; in vivo) [%]	excreted in urine as unchanged drug ([1]; in vivo) [%]	decrease of clearance ([1]; patients with hepatic insufficiency)	absolute bioavailability ([1]; subcutaneous administration) [%]	elimination half-life ([1]; subcutaneous administration) [h]	administered drug excreted in urine ([1]; unchanged drug or identifiable metabolite)	half-life ([1]; in vivo) [min]
dialyzed out the fastest	not exhibited	CCCCC[C@H](O)CC[C@@H]1[C@H]2Cc3cccc(OCC(=O)O)c3C[C@H]2C[C@H]1O [treprostinil]	about 10 hours	64	4	up to 80%	100	4.6	Approximately 79%	
		CCCCC[C@H](O)/C=C/[C@@H]1[C@H]2C/C(=C/CCCC(=O)O)O[C@H]2C[C@H]1O [epoprostenol]								2 to 7
